Measured values from US11684675B2, “Dimeric collagen hybridizing peptides and methods of using” (University of Utah Research Foundation, priority 2015, dated 2023).

Legend:
[1] = Triple helix melting point (Tm) by circular dichroism at 225 nm; format: physicochemical; details: for Tm (° C.): triple helix melting
Experimental: FIGS. 5A, 5B, 5C, and 5D show the thermal denaturation of fully assembled CHPs and subsequent cooling to initial temperature. Samples were heated at 1° C./min from their initial temperature final temperature of 90° C. Sample was then cooled at 1° C./min to the starting temperature. (A) Thermal denaturation and partial reassembly of CHP CF-6d (150 μM) monitored at 225 nm. Sample was measured from 4° C. to 90° C. (B) Thermal denaturation and partial reassembly of CHP […] (75 μM, corresponding to 150 μM strand concentration) monitored at 225 nm. Sample was measured from 4° C. to 90° C. (C) Thermal denaturation and partial reassembly of CHP CF-9 (150 μM) monitored at 225 nm. Sample was measured from 10° C. to 90° C. (D) Thermal denaturation and partial reassembly of CHP CF-9d (75 μM, corresponding to 150 μM strand concentration) monitored at 225 nm. Sample was measured from 10° C. to 90° C.
FIGS. 11A and 11B show the First Derivative of mean residue ellipticity (MRE) at 225 nm in CD. […] There is no significant change in melting point between the monomeric and dimeric forms of the same peptide.
Circular Dichroism: Circular Dichroism (CD) was measured for all peptides at 225 nm. Melting curves were taken on peptides between 10 and 80° C. at a heating rate of 0.5° C./min, with pauses at each 1° C. Refolding experiments were performed after peptide solutions were incubated at 4° C. for at least 12 hours. Concentrations were normalized to strand concentration.

porcine gelatin = test: SPR gelatin capture by immobilized biotinylated CHPs; format: binding; details: gelatin 25 μg/mL
Experimental: FIGS. 7A and 7B show SPR data for porcine gelatin capture by immobilized CHPs. […] Gelatin was applied to the sensor surface during the association phase, followed by elution with blank during dissociation phase. Association occurred for 981 s, followed by dissociation for 1800 s. Values were normalized to a 100% biotin lane, and were adjusted to the mass of peptide immobilized in each well. (A) Preheated (80° C., 10 min), quenched (0° C., 30 s) gelatin (25 μg/mL) was applied to the sensor at an ambient temperature of 37° C. (B) Preheated (80° C., 10 min), quenched (0° C., 30 s) gelatin (25 μg/mL) was applied to the sensor at an ambient temperature of 15° C.
Surface Plasmon Resonance (SPR). […] However, there were major differences observed during the association phase. At 37° C., there was a much higher amount of gelatin adsorbed to all the peptides tested on the surface when compared to 15° C. […] At 15° C., gelatin adsorbed to the surface at a much slower rate. […] However, this lower adsorption rate can be due to a reduced diffusion rate near the surface or a more condensed gelatin structure at this lower temperature.
Dimeric CHP is able to hybridize effectively with denatured collagens with faster folding kinetics than current, monomeric CHPs. Surface plasmon resonance (SPR) was used to measure the ability of the CHPs to trap denatured collagen from solution.

Substance: [(GPO)6G3)2KG [6d]
- melting point ([1]; Example 3): 38 °C
- Tm (° C.) ([1]; Table 1): 38 (SEQ ID NO: 58) ° C.
- Tm (° C.) ([1]; Table 2): 38 (SEQ ID NO: 58) ° C.
- ability to bind gelatin (porcine gelatin; 15° C.): only able to bind gelatin at a rate comparable to the monomeric CHPs
- ability to bind gelatin (porcine gelatin; 37° C.): higher ability to bind gelatin than that of an equivalent number of strands in their monomeric counterparts
